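Method: 48-hour compound exposure of cells in 96-well plates, five concentrations, linear interpolation of endpoints. GI50: concentration for 50% inhibition of growth.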 The source made the active and inactive calls. No stated cut-off is given here; in the data, active = GI50 up to about 1.1 µM and inactive = higher.
How the values were obtained:
Experiment in all cases: NCI anticancer screen, dose series, 48 h
TK-10 = system: TK-10
T47D = system: T47D
EKVX = system: EKVX
HCT-15 = system: HCT-15
K562 = system: K562
OVCAR-3 = system: OVCAR-3
NCI-H23 = system: NCI-H23
KM12 = system: KM12
A498 = system: A498
CAKI-1 = system: CAKI-1
HL-60 = system: HL-60
RPMI-8226 = system: RPMI-8226
NCI-H460 = system: NCI-H460
MCF7 = system: MCF7
OVCAR-8 = system: OVCAR-8
U-251 = system: U-251
SK-MEL-5 = system: SK-MEL-5
DLD-1 = system: DLD-1
HOP-92 = system: HOP-92
COLO 205 = system: COLO 205
NCI-H226 = system: NCI-H226
RXF 393 = system: RXF 393
HCT-116 = system: HCT-116
SR = system: SR
LOX IMVI = system: LOX IMVI
MOLT-4 = system: MOLT-4
PC-3 = system: PC-3
NCI-H522 = system: NCI-H522
KM-20L2 = system: KM-20L2
SF-539 = system: SF-539
DMS-114 = system: DMS-114
DMS-273 = system: DMS-273
SK-OV-3 = system: SK-OV-3
LXFL 529 = system: LXFL 529
CCRF-CEM = system: CCRF-CEM
HT-29 = system: HT-29
MDA-N = system: MDA-N
M19-MEL = system: M19-MEL
SN12C = system: SN12C
ACHN = system: ACHN
HOP-18 = system: HOP-18
SF-268 = system: SF-268
SW-620 = system: SW-620
XF498 = system: XF498
UACC-62 = system: UACC-62
HCC 2998 = system: HCC 2998
RXF 631 = system: RXF 631
DU-145 = system: DU-145
SNB-78 = system: SNB-78
UACC-257 = system: UACC-257
SNB-19 = system: SNB-19
OVCAR-4 = system: OVCAR-4
UO-31 = system: UO-31
A549 = system: A549
SK-MEL-2 = system: SK-MEL-2
786-0 = system: 786-0
SF-295 = system: SF-295
SK-MEL-28 = system: SK-MEL-28
M14 = system: M14
BT-549 = system: BT-549
Malme-3M = system: Malme-3M
IGROV-1 = system: IGROV-1
HOP-62 = system: HOP-62
SNB-75 = system: SNB-75
OVCAR-5 = system: OVCAR-5
MDA-MB-435 = system: MDA-MB-435
Hs-578T = system: Hs-578T

With `CCOC(=O)c1c(CN2CCNCC2)nc2ccc(Cl)cc2c1-c1ccccc1` the GI50 (TK-10) was 5.07 µM (inactive), the GI50 (T47D) was 4.82 µM (inactive) and the GI50 (EKVX) was 9.38 µM (inactive). The GI50 (HCT-15) was 3.91 µM, the GI50 (K562) was 2.14 µM (inactive) and the GI50 (OVCAR-3) was 6.95 µM (inactive). The GI50 (NCI-H23) was 10.4 µM (inactive), the GI50 (KM12) was 3.44 µM (inactive) and the GI50 (A498) was 7.26 µM (inactive). The GI50 (CAKI-1) was 2.47 µM (inactive), the GI50 (HL-60) was 1.98 µM (inactive) and the GI50 (RPMI-8226) was 2.19 µM (inactive). For the same compound, the GI50 (NCI-H460) was 2.48 µM (inactive), the GI50 (MCF7) was 11 µM (inactive) and the GI50 (OVCAR-8) was 4.21 µM (inactive). For the same compound, the GI50 (U-251) was 12.9 µM (inactive), the GI50 (SK-MEL-5) was 1.42 µM (inactive) and the GI50 (DLD-1) was 2.98 µM (inactive). For the same compound, the GI50 (HOP-92) was 1.17 µM (inactive), the GI50 (COLO 205) was 2.03 µM (inactive) and the GI50 (NCI-H226) was 12.6 µM (inactive). The GI50 (RXF 393) was 2.58 µM (inactive), the GI50 (HCT-116) was 3.07 µM (inactive) and the GI50 (SR) was 1.78 µM (inactive). The GI50 (LOX IMVI) was 1.85 µM (inactive), the GI50 (MOLT-4) was 1.86 µM (inactive) and the GI50 (PC-3) was 2.54 µM (inactive). For the same compound, the GI50 (NCI-H522) was 4.38 µM (inactive), the GI50 (KM-20L2) was 2.64 µM (inactive) and the GI50 (SF-539) was 2.56 µM (inactive). For the same compound, the GI50 (DMS-114) was 1.91 µM (inactive), the GI50 (DMS-273) was 2.32 µM (inactive) and the GI50 (SK-OV-3) was 6.93 µM (inactive). For the same compound, the GI50 (LXFL 529) was 1.74 µM (inactive), the GI50 (CCRF-CEM) was 2.51 µM (inactive) and the GI50 (HT-29) was 1.79 µM (inactive). For the same compound, the GI50 (MDA-N) was 5.78 µM (inactive), the GI50 (M19-MEL) was 1.9 µM (inactive) and the GI50 (SN12C) was 4.92 µM (inactive). The GI50 (ACHN) was 5.45 µM (inactive), the GI50 (HOP-18) was 1.79 µM (inactive) and the GI50 (SF-268) was 5.6 µM (inactive). For the same compound, the GI50 (SW-620) was 2.03 µM (inactive), the GI50 (XF498) was 3.15 µM (inactive) and the GI50 (UACC-62) was 1.77 µM (inactive). For the same compound, the GI50 (HCC 2998) was 1.6 µM (inactive), the GI50 (RXF 631) was 2.56 µM (inactive) and the GI50 (DU-145) was 16.2 µM (inactive). The GI50 (SNB-78) was 8.18 µM (inactive), the GI50 (UACC-257) was 1.81 µM (inactive) and the GI50 (SNB-19) was 12.8 µM (inactive). For the same compound, the GI50 (OVCAR-4) was 3.72 µM (inactive), the GI50 (UO-31) was 3.32 µM (inactive) and the GI50 (A549) was 5.31 µM (inactive). For the same compound, the GI50 (SK-MEL-2) was 1.79 µM (inactive), the GI50 (786-0) was 1.65 µM (inactive) and the GI50 (SF-295) was 2.24 µM (inactive). The GI50 (SK-MEL-28) was 3.83 µM (inactive), the GI50 (M14) was 1.81 µM (inactive) and the GI50 (BT-549) was 13.1 µM (inactive). The GI50 (Malme-3M) was 1.94 µM (inactive), the GI50 (IGROV-1) was 5 µM (inactive) and the GI50 (HOP-62) was 6.95 µM (inactive). The GI50 (SNB-75) was 2.37 µM (inactive), the GI50 (OVCAR-5) was 19.5 µM (inactive) and the GI50 (MDA-MB-435) was 2.31 µM (inactive).
For `CC1(C)C(=O)/C=C\C(=O)C(C)(C)C(=O)/C=C\C(=O)C(C)(C)C2=CC=C(O2)C(C)(C)C(=O)/C=C\C1=O`, the GI50 (TK-10) was 7.6 µM (inactive), the GI50 (T47D) was 0.0775 µM (active) and the GI50 (EKVX) was 5.21 µM (inactive). The GI50 (HCT-15) was 3.7 µM, the GI50 (K562) was 1.63 µM (inactive) and the GI50 (OVCAR-3) was 3.27 µM (inactive). The GI50 (NCI-H23) was 5.55 µM (inactive), the GI50 (KM12) was 12.7 µM (inactive) and the GI50 (A498) was 16.8 µM (inactive). For the same compound, the GI50 (CAKI-1) was 3.84 µM (inactive), the GI50 (HL-60) was 0.684 µM (active) and the GI50 (RPMI-8226) was 0.789 µM (active). The GI50 (NCI-H460) was 20.5 µM (inactive), the GI50 (MCF7) was 10.6 µM (inactive) and the GI50 (OVCAR-8) was 4.44 µM (inactive). The GI50 (U-251) was 15.7 µM (inactive), the GI50 (SK-MEL-5) was 7.85 µM (inactive) and the GI50 (DLD-1) was 1.72 µM (inactive). For the same compound, the GI50 (HOP-92) was 1.8 µM (inactive), the GI50 (COLO 205) was 2.29 µM (inactive) and the GI50 (NCI-H226) was 13.6 µM (inactive). For the same compound, the GI50 (RXF 393) was 2 µM (inactive), the GI50 (HCT-116) was 2.08 µM (inactive) and the GI50 (SR) was 1.22 µM (inactive). The GI50 (LOX IMVI) was 5.14 µM (inactive), the GI50 (MOLT-4) was 1.27 µM (inactive) and the GI50 (PC-3) was 15.8 µM (inactive). The GI50 (NCI-H522) was 1.44 µM (inactive), the GI50 (KM-20L2) was 13.9 µM (inactive) and the GI50 (SF-539) was 9.62 µM (inactive). For the same compound, the GI50 (DMS-114) was 8.26 µM (inactive), the GI50 (DMS-273) was 2.94 µM (inactive) and the GI50 (SK-OV-3) was 15.9 µM (inactive). The GI50 (LXFL 529) was 2.4 µM (inactive), the GI50 (CCRF-CEM) was 0.368 µM (active) and the GI50 (HT-29) was 2.89 µM (inactive). For the same compound, the GI50 (MDA-N) was 5.01 µM (inactive), the GI50 (M19-MEL) was 5.86 µM (inactive) and the GI50 (SN12C) was 5.48 µM (inactive). For the same compound, the GI50 (ACHN) was 3.63 µM (inactive), the GI50 (HOP-18) was 22.5 µM (inactive) and the GI50 (SF-268) was 16.6 µM (inactive). The GI50 (SW-620) was 1.66 µM (inactive), the GI50 (Hs-578T) was 16.9 µM (inactive) and the GI50 (XF498) was 1.88 µM (inactive). The GI50 (UACC-62) was 5.07 µM (inactive), the GI50 (HCC 2998) was 11.7 µM (inactive) and the GI50 (RXF 631) was 7.82 µM (inactive). For the same compound, the GI50 (DU-145) was 17.9 µM (inactive), the GI50 (SNB-78) was 3.71 µM (inactive) and the GI50 (UACC-257) was 5.71 µM (inactive). The GI50 (SNB-19) was 16.7 µM (inactive), the GI50 (OVCAR-4) was 6.61 µM (inactive) and the GI50 (UO-31) was 14.5 µM (inactive). For the same compound, the GI50 (A549) was 21.1 µM (inactive), the GI50 (SK-MEL-2) was 12.1 µM (inactive) and the GI50 (786-0) was 2.24 µM (inactive). For the same compound, the GI50 (SF-295) was 17.3 µM (inactive), the GI50 (SK-MEL-28) was 4.99 µM (inactive) and the GI50 (M14) was 2.21 µM (inactive). For the same compound, the GI50 (BT-549) was 11.9 µM (inactive), the GI50 (Malme-3M) was 1.91 µM (inactive) and the GI50 (IGROV-1) was 9.18 µM (inactive). For the same compound, the GI50 (HOP-62) was 24.3 µM (inactive), the GI50 (OVCAR-5) was 20.8 µM (inactive) and the GI50 (MDA-MB-435) was 15.7 µM (inactive).

— ChEMBL document CHEMBL1201862, “PubChem BioAssay data set” (2004)
